Experimental data published in EPA's CvTdb concentration-time database (doi:10.1093/toxsci/kfy020).

Columns and labels:
Assay in all cases: concentration in plasma after dosing
rat [1] = conditions: dosed: 2,4-D, 0.20467 mg/kg, iv, male, Sprague-Dawley
rat [2] = conditions: dosed: 2,4-D, 0.20467 mg/kg, iv, male, Sprague-Dawley; remark: listed apart in the source
rat [3] = conditions: dosed: 2,4-D, 1.043 mg/kg, oral, male, Sprague-Dawley
rat [4] = conditions: male, Sprague-Dawley
rat [5] = conditions: dosed: 2,4-D, 1.043 mg/kg, oral, male, Sprague-Dawley; remark: listed apart in the source
rat [6] = conditions: dosed: Propyzamide, 0.6 mg/kg, iv, male, Sprague-Dawley
rat [7] = conditions: dosed: Propyzamide, 3.0000000000 mg/kg, oral, male, Sprague-Dawley
rat [8] = conditions: dosed: Propyzamide, 3.2120000000 mg/kg, oral, male, Sprague-Dawley
rat [9] = conditions: dosed: Propyzamide, 3.0000000000 mg/kg, oral, male, Sprague-Dawley; remark: listed apart in the source
rat [10] = conditions: dosed: Propyzamide, 0.6 mg/kg, iv, male, Sprague-Dawley; remark: listed apart in the source
rat [11] = conditions: dosed: Propyzamide, 3.2120000000 mg/kg, oral, male, Sprague-Dawley; remark: listed apart in the source
rat [12] = conditions: dosed: Propyzamide, 3.0000000000 mg/kg, oral, male, Sprague-Dawley; remark: listed apart in the source
rat [13] = conditions: dosed: Boscalid, 1.0000000000 mg/kg, iv, male, Sprague-Dawley
rat [14] = conditions: dosed: Boscalid, 5.0000000000 mg/kg, oral, male, Sprague-Dawley
rat [15] = conditions: dosed: Boscalid, 5.0000000000 mg/kg, oral, male, Sprague-Dawley; remark: listed apart in the source
rat [16] = conditions: dosed: Boscalid, 1.0000000000 mg/kg, iv, male, Sprague-Dawley; remark: listed apart in the source
rat [17] = conditions: dosed: Boscalid, 5.0000000000 mg/kg, oral, male, Sprague-Dawley; remark: listed apart in the source
rat [18] = conditions: dosed: Imidacloprid, 5.0000000000 mg/kg, iv, male, Sprague-Dawley
rat [19] = conditions: dosed: Imidacloprid, 5.0000000000 mg/kg, oral, male, Sprague-Dawley
rat [20] = conditions: dosed: Imidacloprid, 5.0000000000 mg/kg, oral, male, Sprague-Dawley; remark: listed apart in the source
rat [21] = conditions: dosed: Imidacloprid, 5.0000000000 mg/kg, iv, male, Sprague-Dawley; remark: listed apart in the source
rat [22] = conditions: dosed: Imidacloprid, 5.0000000000 mg/kg, iv, male, Sprague-Dawley; remark: listed apart in the source
rat [23] = conditions: dosed: Imidacloprid, 5.0000000000 mg/kg, oral, male, Sprague-Dawley; remark: listed apart in the source

O=C(O)COc1ccc(Cl)cc1Cl [2,4-D]
concentration in plasma [ng/mL]
Conditions	0.167 h	0.25 h	0.5 h	1 h	2 h	4 h	5 min	8 h	24 h
rat [1]	250	–	79.7	32.3	30.8	7.75	461	–	–
rat [2]	616	–	219	75.8	9.23	0.324	911	–	–
rat [3]	–	1200	690	417	764	743	–	402	–
rat [5]	–	1440	1240	816	858	688	–	504	0.48

concentration in plasma [ng/mL], rat [4], dosed: 2,4-D
Conditions	0.167 h	0.25 h	0.5 h	1 h	2 h	4 h	5 min	8 h	24 h
0.20467 mg/kg, iv	466	–	192	71.5	22	1.84	710	–	–
1.043 mg/kg, oral	–	1030	1030	566	492	154	–	412	0.0594

C#CC(C)(C)NC(=O)c1cc(Cl)cc(Cl)c1 [Propyzamide]
concentration in plasma [ng/mL]
Conditions	rat [6]	rat [7]	rat [8]	rat [9]	rat [10]	rat [11]	rat [12]
0.25 h	–	62.6	228	43.1	–	217	125
0.5 h	46.9	83.7	302	104	65.8	244	118
1 h	23.8	61.9	262	75.4	49.6	205	90.6
2 h	9.3	29.5	158	46.3	19.8	98.2	50.7
4 h	1.2	49.3	234	54	7.8	159	17.4
5 min	119	–	–	–	156	–	–
8 h	1.4	50.9	116	44.1	–	148	24.1
10 min	122	–	–	–	131	–	–
12 h	–	6.1	–	8.2	0.6	–	8.2
24 h	–	–	3.06	1.5	–	2.89	–
48 h	–	–	0.269	–	–	0.376	–
72 h	–	–	0.0997	–	–	0.0426	–

rat [4], dosed: Propyzamide
Conditions	concentration in plasma [ng/mL]
0.25 h, 3.0000000000 mg/kg, oral	96.6
0.25 h, 3.2120000000 mg/kg, oral	252
0.5 h, 0.6 mg/kg, iv	47.6
0.5 h, 3.0000000000 mg/kg, oral	130
0.5 h, 3.2120000000 mg/kg, oral	359
1 h, 0.6 mg/kg, iv	15.1
1 h, 3.0000000000 mg/kg, oral	103
1 h, 3.2120000000 mg/kg, oral	323
2 h, 3.0000000000 mg/kg, oral	58.4
2 h, 3.2120000000 mg/kg, oral	153
4 h, 0.6 mg/kg, iv	3.1
4 h, 3.0000000000 mg/kg, oral	39.7
4 h, 3.2120000000 mg/kg, oral	174
5 min, 0.6 mg/kg, iv	165
8 h, 3.0000000000 mg/kg, oral	49.7
8 h, 3.2120000000 mg/kg, oral	83.5
10 min, 0.6 mg/kg, iv	117
12 h, 3.0000000000 mg/kg, oral	16.8
24 h, 3.0000000000 mg/kg, oral	1.2
24 h, 3.2120000000 mg/kg, oral	2.23
48 h, 3.2120000000 mg/kg, oral	0.327
72 h, 3.2120000000 mg/kg, oral	0.0846

O=C(Nc1ccccc1-c1ccc(Cl)cc1)c1cccnc1Cl [Boscalid]
concentration in plasma [ng/mL]
Conditions	0.25 h	0.5 h	1 h	2 h	4 h	5 min	8 h	10 min	12 h
rat [13]	–	100	57.6	23.1	12.5	366	6.72	262	–
rat [14]	16.7	22.5	28.9	30.9	20.2	–	22.3	–	10.1
rat [15]	30.5	43.1	31.9	11.5	8.5	–	16.1	–	21.1
rat [16]	–	146	71.5	28.4	10.8	516	–	325	–
rat [17]	29.9	36.8	18.6	14.1	5.5	–	–	–	8.6

concentration in plasma [ng/mL], rat [4], dosed: Boscalid
Conditions	0.25 h	0.5 h	1 h	2 h	4 h	5 min	8 h	10 min	12 h
1.0000000000 mg/kg, iv	–	131	78	29.4	9.3	418	–	293	–
5.0000000000 mg/kg, oral	47.3	81.4	65.2	24.6	13.6	–	15.9	–	7.5

O=[N+]([O-])/N=C1\NCCN1Cc1ccc(Cl)nc1 [Imidacloprid]
concentration in plasma [ng/mL]
Conditions	rat [18]	rat [19]	rat [20]	rat [21]	rat [22]	rat [23]
0.25 h	–	1770	831	–	–	4410
0.5 h	743	2660	935	1140	382	4310
1 h	603	2670	1930	922	560	6030
2 h	786	2380	2060	626	694	3400
4 h	552	1990	2620	478	548	2480
5 min	786	–	–	1260	217	–
8 h	232	648	2950	191	170	2670
10 min	683	–	–	1500	328	–
12 h	141	278	1200	67.5	67	1520
24 h	14	46	279	8.66	8.54	259
48 h	2.12	14.5	17.9	–	–	33.6
72 h	–	8.76	13.2	–	2.49	–

concentration in plasma [ng/mL], rat [4], dosed: Imidacloprid, 5.0000000000 mg/kg
Conditions	iv	oral
0.25 h	–	1600
0.5 h	971	2290
1 h	683	1550
2 h	943	2920
4 h	695	2610
5 min	1190	–
8 h	327	2330
10 min	1260	–
12 h	233	1360
24 h	17.6	171
48 h	2.89	19.7
72 h	–	6.62
